Measurements taken from patent US6033823A, “Mutated penicillin G acylase genes” (priority 1994, dated 2000).
Residue numbers refer to the chain shown, from its start. pKi: −log10 of the molar value.

Experiments:
[1] = molecular target: T1, Alcaligenes faecalis Penicillin G acylase mutant B:L56A (Alcaligenes faecalis, UniProt O34142, L321A); assay: NIPAB kinetics and phenylacetic acid product inhibition, mutant B:L56A; type: biochemical; conditions: from progress curves of NIPAB deacylation, 25° C., 0.1 M NaH2PO4.H2O buffer pH 7.5, read-out: Ki Phenylacetic acid (inhibition constant, dissociation constant)
T1 construct: alpha 202 aa, beta 551 aa; recombinant, E. coli host
T1 sequence (O34142 27-228): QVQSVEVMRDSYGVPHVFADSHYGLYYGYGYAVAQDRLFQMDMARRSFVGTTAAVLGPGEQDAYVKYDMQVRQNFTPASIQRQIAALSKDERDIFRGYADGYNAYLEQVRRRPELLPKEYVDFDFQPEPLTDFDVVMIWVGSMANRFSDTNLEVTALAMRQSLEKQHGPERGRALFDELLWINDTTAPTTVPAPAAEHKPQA
T1 sequence (O34142 266-816 L321A): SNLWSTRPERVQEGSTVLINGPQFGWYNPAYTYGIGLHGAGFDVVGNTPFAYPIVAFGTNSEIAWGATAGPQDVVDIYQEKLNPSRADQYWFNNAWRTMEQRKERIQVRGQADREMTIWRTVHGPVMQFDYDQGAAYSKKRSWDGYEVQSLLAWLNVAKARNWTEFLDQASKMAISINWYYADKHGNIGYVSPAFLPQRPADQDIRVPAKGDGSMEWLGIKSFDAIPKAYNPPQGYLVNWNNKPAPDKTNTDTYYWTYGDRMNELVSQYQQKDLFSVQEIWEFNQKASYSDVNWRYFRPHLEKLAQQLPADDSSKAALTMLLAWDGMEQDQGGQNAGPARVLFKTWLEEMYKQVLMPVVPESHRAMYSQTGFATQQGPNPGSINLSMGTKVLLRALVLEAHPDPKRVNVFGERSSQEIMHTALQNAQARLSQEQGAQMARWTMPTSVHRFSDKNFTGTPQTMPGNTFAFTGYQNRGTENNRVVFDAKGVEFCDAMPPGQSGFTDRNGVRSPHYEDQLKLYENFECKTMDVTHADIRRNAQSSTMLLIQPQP
Method: (§1) In a continuous assay Penicillin G acylase was assayed spectro-fotometrically with the chromogenic substrate NIPAB [6-nitro-3-phenylacetamido-benzoic acid]. The liberation of 3-amino-6-nitrobenzoic acid was monitored by measuring the extinction at 405 nm in a Kontron 610 kinetic spectrofotometer. Measuring maximal rate, the assays were performed at 25° C. using 20 mM NaH2 PO4.H2 O at pH 7.5 with 20 mM NIPAB and 100 μl enzym solution (at a proper dilution). Initial rate measurements were performed with varying concentration of NIPAB.
(§2) Initial rate measurements were performed with excess substrate over the enzyme. Catalytic parameters were derived from least-squares fitting of the measured initial rates plotted for various substrate concentrations according to the Michaelis-Menten equation.
(§3) The complete conversion of NIPAB was followed as a funtion of time at 20, 50 and 100 μM NIPAB by following the increase in absorbtion at 405 nm. Products of this conversion are phenylacetic acid and 3-amino-6-nitrobenzoic acid. The conversion was performed at 25° C. in 0.1 M NaH2 PO4.H2 O buffer pH 7.5. The progress curves of the deacylation of NIPAB could be fitted very well when product inhibition by phenylacetic acid was taken into account. […]

[2] = molecular target: T2, Alcaligenes faecalis Penicillin G acylase mutant B:I177S (Alcaligenes faecalis, UniProt O34142, I442S); assay: NIPAB kinetics and phenylacetic acid product inhibition, mutant B:I177S; type: biochemical; conditions: from progress curves of NIPAB deacylation, 25° C., 0.1 M NaH2PO4.H2O buffer pH 7.5, read-out: Ki Phenylacetic acid (inhibition constant, dissociation constant)
T2 construct: alpha 202 aa, beta 551 aa; recombinant, E. coli host
T2 sequence (O34142 27-228): T1 sequence (O34142 27-228)
T2 sequence (O34142 266-816 I442S): T1 sequence (O34142 266-816 L321A) with A56L, I177S
Method: as §1, §2, §3

O=C(O)Cc1ccccc1 [phenylacetic acid]
pKi [1]: 4.23
pKi [2]: 3.60
